Assay results as given in publication PMC4717260, “2-(2,4-Dioxy-1,2,3,4-Tetrahydropyrimidin-1-yl)-N-(4-Phenoxyphenyl)-Acetamides as a Novel Class of Cytomegalovirus Replication Inhibitors” (Acta Naturae, 2015).
Like-named read-outs stand apart in the source and are kept apart here.

Assays:
[1] = system: CMV (AD-169 and Davis strains); assay: Anti-CMV activity in HEL cell culture; assay type: cell-based, human cytomegalovirus; settings: read-out: EC50, inhibition of CMV replication
[2] = system: VZV (Oka strain); assay: microbe, parasite or virus in culture; assay type: cell-based, varicella zoster virus; settings: read-out: EC50, VZV replication (Oka strain)
[3] = system: thymidine kinase deficient VZV mutant strain (07-1); assay: Anti-VZV activity (thymidine kinase deficient mutant strain 07-1); assay type: cell-based, varicella zoster virus

O=C(Cn1c(=O)ccn(CCOc2ccccc2)c1=O)Nc1ccc(Oc2ccccc2)cc1
melting point: 154 to 155 °C

Cc1cc(C)cc(Cn2ccc(=O)n(CC(=O)Nc3ccc(Oc4ccccc4)cc3)c2=O)c1 [Compound 6, 2-[3-(3,5-Dimethylbenzyl)-2,6-dioxo-3,6-dihydropyrimidin-1(2H)-yl]-N-(4-phenoxyphenyl)acetamide]
EC50 ([1]; Human betaherpesvirus 5, AD169, one range printed for both compounds and both strains): 3.06 to 8.9 µM
EC50 ([2]; Human alphaherpesvirus 3, HEL): 17 µM
EC50 ([3]; Human alphaherpesvirus 3, read-out: EC50, thymidine kinase deficient VZV mutant strain (07-1)): 16.1 µM
melting point: 99 to 101 °C

O=c1[nH]c(=O)n([C@H]2C[C@H](O)[C@@H](CO)O2)cc1/C=C/Br [brivudine, reference compound]
EC50 ([2]; Human alphaherpesvirus 3, HEL): 0.026 µM

Cc1ccc(Cn2ccc(=O)n(CC(=O)Nc3ccc(Oc4ccccc4)cc3)c2=O)cc1
melting point: 193 to 194 °C

O=C(Cn1c(=O)ccn(Cc2ccccc2)c1=O)Nc1ccc(Oc2ccccc2)cc1 [Compound 4, 2-(3-Benzyl-2,6-dioxo-3,6-dihydropyrimidin-1(2H)-yl)-N-(4-phenoxyphenyl)acetamides]
EC50 ([1]; one range printed for both compounds and both strains): 3.06 to 8.9 µM
EC50 ([2]; HEL cell culture, Oka strain): 8.18 µM
EC50 ([3]; strain 07-1, resistant to acyclovir and brivudine, read-out: EC50, thymidine kinase deficient VZV mutant strain (07-1)): 6.68 µM

O=C(Cn1c(=O)ccn(CC=Cc2ccccc2)c1=O)Nc1ccc(Oc2ccccc2)cc1
melting point: 184 to 185 °C

C#CCn1ccc(=O)n(CC(=O)Nc2ccc(Oc3ccccc3)cc2)c1=O
melting point: 226 to 228 °C
